From patent US8946270B2, “Amido-pyridyl ether compounds and compositions and their use against parasites” (Merial Limited, priority 2011, dated 2015)
Read-outs that look alike come from different tables or passages of the source.

Assays:
Haematobia irritans = assay: whole plant or invertebrate; details: Haematobia irritans, 5 μg/cm^2, read-out: Contact SP Horn Fly PCT Mortality (%)
Method: A solution of the test compound was used to treat a filter paper contained within a Petri dish and the filter paper was allowed to evaporate to dryness. A small piece of absorbent cotton moistened with 10% sucrose and ten adult flies (Haematobia irritans or Stomoxys calcitrans) were added to each dish. Dishes were capped and held at room temperature. Assessments were performed at 4 and 24 hours after infestation in comparison with untreated controls.

[1] = tested on: microfilaria of Dirofilaria immitis; assay: Activity against D. immitis microfilaria (Mf); details: 5 ppm; 5 days
Method: Four hundred to six hundred microfilaria of Dirofilaria immitis were added to wells of a microtitre plate containing RPMI media and the test compound in DMSO. The microtitre plate was then held at 37° C. in an environment containing 5% CO2. An assessment was conducted at 5 days to determine survival of the microfilaria. Microfilaria exposed to DMSO and no test compound served as controls.

[2] = tested on: Haemonchus contortus larvae; assay: Activity against H. contortus, larval development L1 to L3 (LDA); details: 5 ppm; 4 days
Method: Twenty L1 Haemonchus contortus larvae were added to wells of a microtitre plate containing a nutrient medium and the test compound in DMSO. The microtitre plate was then held at 27° C. where the L1 larvae were allowed to develop. […] Larvae exposed to DMSO and no test compound served as controls

SMILES: O=C(NCC1CCOCC1)c1ccc(CCOc2ccc(OC(F)(F)F)cc2)cn1 [Compound 14]
- mortality at 5 µg/cm2 (Haematobia irritans; timepoint 4 hrs): 80%
- mortality at 5 µg/cm2 (Haematobia irritans; timepoint 24 hrs): 100%
- Mf sp D. immitis PCT Motili [1]: 88%
- LDA SP H. cont. PCT Mot M [2]: 100%
